This passage reports inhibition results from ChEMBL document CHEMBL5442219.

Settings in all cases: Compound concentration 10 µM
The target of assay [1] is Histamine H3 receptor (Homo sapiens) (UniProt Q9Y5N1).
Description: PDSP Primary Binding target: HRH3 - Compounds are tested at 10 uM concentration, plate are incubated at room temperature in the dark for 90 minutes. Reaction are stopped by vacuum filtration onto 0.3% polyethyleneimine soaked filter mats using Filtermate harvester. Scintilation cocktail is then melted onto microwave-dried filters on a hot plate and the radio activity is counted in Microbia counter.
Assay [2] concerns the target Sodium-dependent dopamine transporter (Homo sapiens) (UniProt Q01959).
Description: PDSP Primary Binding target: SLC6A3 - Compounds are tested at 10 uM concentration, plate are incubated at room temperature in the dark for 90 minutes. Reaction are stopped by vacuum filtration onto 0.3% polyethyleneimine soaked filter mats using Filtermate harvester. Scintilation cocktail is then melted onto microwave-dried filters on a hot plate and the radio activity is counted in Microbia counter.
Assay [3] addresses Muscarinic acetylcholine receptor M3 (Homo sapiens) (UniProt P20309).
Description: PDSP Primary Binding target: CHRM3 - Compounds are tested at 10 uM concentration, plate are incubated at room temperature in the dark for 90 minutes. Reaction are stopped by vacuum filtration onto 0.3% polyethyleneimine soaked filter mats using Filtermate harvester. Scintilation cocktail is then melted onto microwave-dried filters on a hot plate and the radio activity is counted in Microbia counter.
Assay [4] deals with 5-hydroxytryptamine receptor 1B (Homo sapiens) (UniProt P28222).
Description: PDSP Primary Binding target: HTR1B - Compounds are tested at 10 uM concentration, plate are incubated at room temperature in the dark for 90 minutes. Reaction are stopped by vacuum filtration onto 0.3% polyethyleneimine soaked filter mats using Filtermate harvester. Scintilation cocktail is then melted onto microwave-dried filters on a hot plate and the radio activity is counted in Microbia counter.
The target of assay [5] is T1, Muscarinic acetylcholine receptor M5 (Homo sapiens) (UniProt P08912).
T1 sequence (whole entry): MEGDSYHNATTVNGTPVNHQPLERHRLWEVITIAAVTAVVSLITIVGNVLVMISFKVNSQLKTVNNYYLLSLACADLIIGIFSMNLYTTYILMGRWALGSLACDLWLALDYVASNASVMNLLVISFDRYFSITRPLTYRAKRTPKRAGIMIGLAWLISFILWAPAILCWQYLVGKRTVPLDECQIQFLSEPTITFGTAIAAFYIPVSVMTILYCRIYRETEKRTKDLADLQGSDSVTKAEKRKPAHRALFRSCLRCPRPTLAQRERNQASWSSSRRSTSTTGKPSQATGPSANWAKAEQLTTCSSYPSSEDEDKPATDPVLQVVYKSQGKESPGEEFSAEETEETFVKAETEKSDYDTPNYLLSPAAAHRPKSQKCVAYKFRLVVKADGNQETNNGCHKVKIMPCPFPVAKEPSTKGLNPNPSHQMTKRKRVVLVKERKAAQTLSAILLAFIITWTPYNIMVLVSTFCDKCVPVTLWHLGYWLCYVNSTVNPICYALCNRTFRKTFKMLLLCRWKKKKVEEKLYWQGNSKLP
Description: PDSP Primary Binding target: CHRM5 - Compounds are tested at 10 uM concentration, plate are incubated at room temperature in the dark for 90 minutes. Reaction are stopped by vacuum filtration onto 0.3% polyethyleneimine soaked filter mats using Filtermate harvester. Scintilation cocktail is then melted onto microwave-dried filters on a hot plate and the radio activity is counted in Microbia counter.

Assay [6] concerns the target T2, Muscarinic acetylcholine receptor M4 (Homo sapiens) (UniProt P08173).
T2 sequence (whole entry): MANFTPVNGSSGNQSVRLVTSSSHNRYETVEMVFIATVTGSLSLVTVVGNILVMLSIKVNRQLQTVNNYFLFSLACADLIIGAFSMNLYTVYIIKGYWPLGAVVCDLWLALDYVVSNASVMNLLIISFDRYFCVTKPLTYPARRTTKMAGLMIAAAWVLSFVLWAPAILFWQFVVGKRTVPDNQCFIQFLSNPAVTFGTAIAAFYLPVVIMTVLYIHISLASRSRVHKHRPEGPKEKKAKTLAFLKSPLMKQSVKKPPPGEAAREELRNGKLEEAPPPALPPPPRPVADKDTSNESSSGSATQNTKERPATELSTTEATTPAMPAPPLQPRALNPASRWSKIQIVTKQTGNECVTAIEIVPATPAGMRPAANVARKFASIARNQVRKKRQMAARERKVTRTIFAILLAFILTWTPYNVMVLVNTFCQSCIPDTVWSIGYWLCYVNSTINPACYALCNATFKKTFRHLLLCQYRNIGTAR
Description: PDSP Primary Binding target: CHRM4 - Compounds are tested at 10 uM concentration, plate are incubated at room temperature in the dark for 90 minutes. Reaction are stopped by vacuum filtration onto 0.3% polyethyleneimine soaked filter mats using Filtermate harvester. Scintilation cocktail is then melted onto microwave-dried filters on a hot plate and the radio activity is counted in Microbia counter.

Assay [7] addresses D(1B) dopamine receptor (Homo sapiens) (UniProt P21918).
Description: PDSP Primary Binding target: DRD5 - Compounds are tested at 10 uM concentration, plate are incubated at room temperature in the dark for 90 minutes. Reaction are stopped by vacuum filtration onto 0.3% polyethyleneimine soaked filter mats using Filtermate harvester. Scintilation cocktail is then melted onto microwave-dried filters on a hot plate and the radio activity is counted in Microbia counter.
The target of assay [8] is Beta-1 adrenergic receptor (Homo sapiens) (UniProt P08588).
Sequence of Beta-1 adrenergic receptor (Homo sapiens) (P08588 whole entry, looked up): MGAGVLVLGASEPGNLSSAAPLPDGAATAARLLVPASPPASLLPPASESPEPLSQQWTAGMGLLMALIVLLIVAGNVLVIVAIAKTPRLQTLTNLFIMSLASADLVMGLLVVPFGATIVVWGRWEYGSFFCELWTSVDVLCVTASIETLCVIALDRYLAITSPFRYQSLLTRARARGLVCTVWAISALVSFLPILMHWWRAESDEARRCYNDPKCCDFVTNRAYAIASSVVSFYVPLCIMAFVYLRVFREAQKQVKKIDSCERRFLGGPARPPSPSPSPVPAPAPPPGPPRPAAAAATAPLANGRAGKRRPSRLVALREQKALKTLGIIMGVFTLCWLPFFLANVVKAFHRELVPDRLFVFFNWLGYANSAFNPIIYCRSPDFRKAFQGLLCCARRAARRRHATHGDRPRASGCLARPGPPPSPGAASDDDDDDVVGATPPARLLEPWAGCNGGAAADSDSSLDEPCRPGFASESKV
Description: PDSP Primary Binding target: ADRB1 - Compounds are tested at 10 uM concentration, plate are incubated at room temperature in the dark for 90 minutes. Reaction are stopped by vacuum filtration onto 0.3% polyethyleneimine soaked filter mats using Filtermate harvester. Scintilation cocktail is then melted onto microwave-dried filters on a hot plate and the radio activity is counted in Microbia counter.
Assay [9] deals with D(1A) dopamine receptor (Homo sapiens) (UniProt P21728).
Sequence of D(1A) dopamine receptor (Homo sapiens) (P21728 whole entry): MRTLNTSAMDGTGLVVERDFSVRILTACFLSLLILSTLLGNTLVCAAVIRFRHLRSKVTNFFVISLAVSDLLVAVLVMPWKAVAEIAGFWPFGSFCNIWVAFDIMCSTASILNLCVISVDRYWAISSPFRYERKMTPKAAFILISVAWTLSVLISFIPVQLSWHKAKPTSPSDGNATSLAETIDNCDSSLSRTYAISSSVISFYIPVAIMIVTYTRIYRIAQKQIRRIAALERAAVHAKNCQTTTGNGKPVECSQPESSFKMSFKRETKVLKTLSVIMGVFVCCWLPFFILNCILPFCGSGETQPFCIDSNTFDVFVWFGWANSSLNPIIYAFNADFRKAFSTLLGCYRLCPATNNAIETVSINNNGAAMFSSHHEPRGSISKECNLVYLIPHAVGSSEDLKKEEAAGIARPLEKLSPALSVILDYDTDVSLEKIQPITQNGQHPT
Description: PDSP Primary Binding target: DRD1 - Compounds are tested at 10 uM concentration, plate are incubated at room temperature in the dark for 90 minutes. Reaction are stopped by vacuum filtration onto 0.3% polyethyleneimine soaked filter mats using Filtermate harvester. Scintilation cocktail is then melted onto microwave-dried filters on a hot plate and the radio activity is counted in Microbia counter.
Assay [10] addresses Sodium-dependent noradrenaline transporter (Homo sapiens) (UniProt P23975).
Description: PDSP Primary Binding target: SLC6A2 - Compounds are tested at 10 uM concentration, plate are incubated at room temperature in the dark for 90 minutes. Reaction are stopped by vacuum filtration onto 0.3% polyethyleneimine soaked filter mats using Filtermate harvester. Scintilation cocktail is then melted onto microwave-dried filters on a hot plate and the radio activity is counted in Microbia counter.
Assay [11] has as its target Sigma non-opioid intracellular receptor 1 (Homo sapiens) (UniProt Q99720).
Description: PDSP Primary Binding target: SIGMAR1 - Compounds are tested at 10 uM concentration, plate are incubated at room temperature in the dark for 90 minutes. Reaction are stopped by vacuum filtration onto 0.3% polyethyleneimine soaked filter mats using Filtermate harvester. Scintilation cocktail is then melted onto microwave-dried filters on a hot plate and the radio activity is counted in Microbia counter.
The target of assay [12] is D(2) dopamine receptor (Homo sapiens) (UniProt P14416).
Description: PDSP Primary Binding target: DRD2 - Compounds are tested at 10 uM concentration, plate are incubated at room temperature in the dark for 90 minutes. Reaction are stopped by vacuum filtration onto 0.3% polyethyleneimine soaked filter mats using Filtermate harvester. Scintilation cocktail is then melted onto microwave-dried filters on a hot plate and the radio activity is counted in Microbia counter.
Assay [13] has as its target 5-hydroxytryptamine receptor 7 (Homo sapiens) (UniProt P34969).
Description: PDSP Primary Binding target: HTR7 - Compounds are tested at 10 uM concentration, plate are incubated at room temperature in the dark for 90 minutes. Reaction are stopped by vacuum filtration onto 0.3% polyethyleneimine soaked filter mats using Filtermate harvester. Scintilation cocktail is then melted onto microwave-dried filters on a hot plate and the radio activity is counted in Microbia counter.
In assay [14] the target is T3, Alpha-1A adrenergic receptor (Homo sapiens) (UniProt P35348).
T3 sequence (whole entry): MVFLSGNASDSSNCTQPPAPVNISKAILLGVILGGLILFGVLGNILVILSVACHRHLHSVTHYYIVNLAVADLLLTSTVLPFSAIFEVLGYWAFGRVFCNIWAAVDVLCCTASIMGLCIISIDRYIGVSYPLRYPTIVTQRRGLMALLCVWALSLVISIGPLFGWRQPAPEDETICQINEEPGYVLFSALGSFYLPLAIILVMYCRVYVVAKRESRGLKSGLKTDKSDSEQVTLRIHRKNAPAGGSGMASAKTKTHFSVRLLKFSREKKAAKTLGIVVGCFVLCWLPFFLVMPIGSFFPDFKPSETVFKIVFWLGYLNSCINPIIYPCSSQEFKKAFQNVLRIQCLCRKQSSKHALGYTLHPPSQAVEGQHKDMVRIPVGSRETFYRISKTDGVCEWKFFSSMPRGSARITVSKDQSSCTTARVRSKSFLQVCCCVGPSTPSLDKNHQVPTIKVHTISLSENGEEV
Description: PDSP Primary Binding target: ADRA1A - Compounds are tested at 10 uM concentration, plate are incubated at room temperature in the dark for 90 minutes. Reaction are stopped by vacuum filtration onto 0.3% polyethyleneimine soaked filter mats using Filtermate harvester. Scintilation cocktail is then melted onto microwave-dried filters on a hot plate and the radio activity is counted in Microbia counter.

Assay [15] has as its target 5-hydroxytryptamine receptor 1D (Homo sapiens) (UniProt P28221).
Description: PDSP Primary Binding target: HTR1D - Compounds are tested at 10 uM concentration, plate are incubated at room temperature in the dark for 90 minutes. Reaction are stopped by vacuum filtration onto 0.3% polyethyleneimine soaked filter mats using Filtermate harvester. Scintilation cocktail is then melted onto microwave-dried filters on a hot plate and the radio activity is counted in Microbia counter.
Assay [16] has as its target T4, Muscarinic acetylcholine receptor M1 (Homo sapiens) (UniProt P11229).
T4 sequence (whole entry): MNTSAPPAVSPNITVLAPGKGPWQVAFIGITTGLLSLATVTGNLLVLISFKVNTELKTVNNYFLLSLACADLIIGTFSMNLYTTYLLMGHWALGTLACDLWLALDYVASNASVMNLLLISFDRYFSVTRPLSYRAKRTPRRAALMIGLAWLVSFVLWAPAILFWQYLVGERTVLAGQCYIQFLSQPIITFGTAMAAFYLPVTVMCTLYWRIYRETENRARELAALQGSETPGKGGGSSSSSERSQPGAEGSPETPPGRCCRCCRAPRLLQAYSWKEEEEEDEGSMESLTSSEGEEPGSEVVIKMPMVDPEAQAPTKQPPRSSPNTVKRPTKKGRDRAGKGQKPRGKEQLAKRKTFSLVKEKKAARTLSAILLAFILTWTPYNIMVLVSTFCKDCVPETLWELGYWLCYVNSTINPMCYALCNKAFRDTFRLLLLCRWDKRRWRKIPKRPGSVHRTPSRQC
Description: PDSP Primary Binding target: CHRM1 - Compounds are tested at 10 uM concentration, plate are incubated at room temperature in the dark for 90 minutes. Reaction are stopped by vacuum filtration onto 0.3% polyethyleneimine soaked filter mats using Filtermate harvester. Scintilation cocktail is then melted onto microwave-dried filters on a hot plate and the radio activity is counted in Microbia counter.

Sequence of Muscarinic acetylcholine receptor M3 (Homo sapiens) (P20309 whole entry, looked up): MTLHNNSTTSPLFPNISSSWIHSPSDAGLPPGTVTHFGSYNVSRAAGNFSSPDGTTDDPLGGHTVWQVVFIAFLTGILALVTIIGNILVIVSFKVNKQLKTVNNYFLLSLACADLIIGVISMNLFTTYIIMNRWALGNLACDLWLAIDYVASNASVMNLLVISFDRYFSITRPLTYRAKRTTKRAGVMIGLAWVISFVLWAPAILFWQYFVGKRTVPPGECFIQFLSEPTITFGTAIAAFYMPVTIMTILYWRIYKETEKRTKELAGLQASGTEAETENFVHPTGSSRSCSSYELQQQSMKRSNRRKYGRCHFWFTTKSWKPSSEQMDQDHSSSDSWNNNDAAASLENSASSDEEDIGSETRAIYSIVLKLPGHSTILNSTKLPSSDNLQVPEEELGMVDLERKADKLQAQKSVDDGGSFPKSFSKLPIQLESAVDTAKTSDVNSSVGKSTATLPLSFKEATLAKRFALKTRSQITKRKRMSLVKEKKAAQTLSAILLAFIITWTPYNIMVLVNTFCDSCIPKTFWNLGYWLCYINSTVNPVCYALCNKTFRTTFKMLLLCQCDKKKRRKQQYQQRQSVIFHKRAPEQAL
Sequence of Histamine H3 receptor (Homo sapiens) (Q9Y5N1 whole entry): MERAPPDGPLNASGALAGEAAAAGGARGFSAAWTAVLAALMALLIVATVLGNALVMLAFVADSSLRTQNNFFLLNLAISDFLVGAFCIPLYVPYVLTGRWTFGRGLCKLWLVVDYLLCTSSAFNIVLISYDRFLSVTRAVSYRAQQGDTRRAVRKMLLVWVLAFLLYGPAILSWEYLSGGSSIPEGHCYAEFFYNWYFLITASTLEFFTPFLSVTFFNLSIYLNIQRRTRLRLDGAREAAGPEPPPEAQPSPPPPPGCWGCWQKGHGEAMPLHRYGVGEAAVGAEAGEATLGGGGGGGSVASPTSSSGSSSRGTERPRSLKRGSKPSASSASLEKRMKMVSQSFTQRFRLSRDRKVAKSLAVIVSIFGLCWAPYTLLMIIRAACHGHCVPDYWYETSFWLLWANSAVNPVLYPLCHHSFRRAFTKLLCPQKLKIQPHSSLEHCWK
Sequence of Sigma non-opioid intracellular receptor 1 (Homo sapiens) (Q99720 whole entry): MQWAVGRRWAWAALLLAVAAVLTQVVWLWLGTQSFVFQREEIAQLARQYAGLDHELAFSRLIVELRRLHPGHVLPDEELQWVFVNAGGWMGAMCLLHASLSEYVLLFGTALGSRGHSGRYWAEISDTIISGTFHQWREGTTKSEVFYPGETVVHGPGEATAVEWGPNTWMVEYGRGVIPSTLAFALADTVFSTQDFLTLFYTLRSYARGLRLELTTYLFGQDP
Sequence of 5-hydroxytryptamine receptor 1B (Homo sapiens) (P28222 whole entry): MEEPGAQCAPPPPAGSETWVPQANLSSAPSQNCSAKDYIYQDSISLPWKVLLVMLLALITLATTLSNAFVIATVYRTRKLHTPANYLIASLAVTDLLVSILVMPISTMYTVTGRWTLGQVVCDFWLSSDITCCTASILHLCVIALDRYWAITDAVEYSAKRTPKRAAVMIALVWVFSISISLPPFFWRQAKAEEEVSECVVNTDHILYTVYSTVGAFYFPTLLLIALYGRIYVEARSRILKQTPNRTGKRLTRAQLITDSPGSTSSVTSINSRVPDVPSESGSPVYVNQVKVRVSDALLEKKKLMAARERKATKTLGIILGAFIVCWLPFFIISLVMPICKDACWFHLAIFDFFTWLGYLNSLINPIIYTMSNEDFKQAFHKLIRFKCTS
Sequence of 5-hydroxytryptamine receptor 7 (Homo sapiens) (P34969 whole entry): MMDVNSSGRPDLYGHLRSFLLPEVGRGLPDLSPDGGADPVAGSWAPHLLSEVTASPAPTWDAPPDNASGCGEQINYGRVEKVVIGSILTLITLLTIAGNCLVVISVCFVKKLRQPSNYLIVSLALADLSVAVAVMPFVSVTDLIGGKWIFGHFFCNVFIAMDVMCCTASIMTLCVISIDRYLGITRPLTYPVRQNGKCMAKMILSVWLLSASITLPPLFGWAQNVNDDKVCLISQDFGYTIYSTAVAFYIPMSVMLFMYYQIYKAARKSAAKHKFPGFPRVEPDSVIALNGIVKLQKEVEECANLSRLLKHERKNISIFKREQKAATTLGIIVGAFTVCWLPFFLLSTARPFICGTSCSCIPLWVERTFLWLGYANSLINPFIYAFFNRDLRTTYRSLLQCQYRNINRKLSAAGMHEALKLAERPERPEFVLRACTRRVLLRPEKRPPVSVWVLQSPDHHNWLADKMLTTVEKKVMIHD
Sequence of 5-hydroxytryptamine receptor 1D (Homo sapiens) (P28221 whole entry): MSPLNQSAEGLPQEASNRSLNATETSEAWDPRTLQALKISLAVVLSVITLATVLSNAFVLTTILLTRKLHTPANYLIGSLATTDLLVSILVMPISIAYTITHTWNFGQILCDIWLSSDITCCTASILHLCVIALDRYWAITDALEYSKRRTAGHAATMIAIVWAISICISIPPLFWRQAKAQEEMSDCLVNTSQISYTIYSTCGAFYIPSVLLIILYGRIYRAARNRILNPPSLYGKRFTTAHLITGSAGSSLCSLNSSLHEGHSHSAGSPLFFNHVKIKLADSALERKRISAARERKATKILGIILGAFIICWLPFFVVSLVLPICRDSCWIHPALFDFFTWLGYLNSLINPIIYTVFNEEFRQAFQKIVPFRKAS
Sequence of Sodium-dependent dopamine transporter (Homo sapiens) (Q01959 whole entry): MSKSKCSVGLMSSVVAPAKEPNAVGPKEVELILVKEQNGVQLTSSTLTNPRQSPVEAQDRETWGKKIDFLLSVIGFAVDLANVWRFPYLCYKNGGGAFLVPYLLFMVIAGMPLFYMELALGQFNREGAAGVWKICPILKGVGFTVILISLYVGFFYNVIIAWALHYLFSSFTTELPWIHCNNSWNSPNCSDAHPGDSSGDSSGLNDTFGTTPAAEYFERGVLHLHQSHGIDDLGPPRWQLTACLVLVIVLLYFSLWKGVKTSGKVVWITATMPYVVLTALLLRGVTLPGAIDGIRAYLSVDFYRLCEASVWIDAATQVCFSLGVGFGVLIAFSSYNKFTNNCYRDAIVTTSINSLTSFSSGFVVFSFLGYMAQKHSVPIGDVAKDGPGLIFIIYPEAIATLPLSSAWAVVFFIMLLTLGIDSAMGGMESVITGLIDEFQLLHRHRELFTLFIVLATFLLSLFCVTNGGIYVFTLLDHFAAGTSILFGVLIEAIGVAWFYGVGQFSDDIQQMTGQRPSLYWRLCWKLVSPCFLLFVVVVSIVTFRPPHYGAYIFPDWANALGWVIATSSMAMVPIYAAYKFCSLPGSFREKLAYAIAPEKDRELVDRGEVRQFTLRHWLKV
Sequence of Sodium-dependent noradrenaline transporter (Homo sapiens) (P23975 whole entry): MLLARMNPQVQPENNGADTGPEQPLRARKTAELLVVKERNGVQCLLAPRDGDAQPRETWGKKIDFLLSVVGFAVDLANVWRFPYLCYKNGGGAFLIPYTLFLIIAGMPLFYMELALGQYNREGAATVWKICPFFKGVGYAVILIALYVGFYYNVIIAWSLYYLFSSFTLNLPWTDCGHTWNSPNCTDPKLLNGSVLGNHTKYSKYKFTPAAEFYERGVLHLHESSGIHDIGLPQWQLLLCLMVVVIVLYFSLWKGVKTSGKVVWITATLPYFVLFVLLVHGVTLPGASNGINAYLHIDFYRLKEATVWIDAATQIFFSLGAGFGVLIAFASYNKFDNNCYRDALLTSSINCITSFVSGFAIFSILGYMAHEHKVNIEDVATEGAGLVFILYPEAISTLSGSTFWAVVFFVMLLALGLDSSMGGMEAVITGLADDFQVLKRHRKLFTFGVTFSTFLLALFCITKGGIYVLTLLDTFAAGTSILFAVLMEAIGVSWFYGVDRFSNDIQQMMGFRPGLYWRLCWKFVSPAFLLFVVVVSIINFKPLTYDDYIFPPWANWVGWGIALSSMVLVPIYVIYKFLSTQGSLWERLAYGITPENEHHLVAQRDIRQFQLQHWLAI

For the compound `O=c1ccn([C@@H]2O[C@H](COP(=O)(O)OP(=O)(O)OP(=O)(O)O)[C@@H](O)[C@H]2O)c(=O)[nH]1`, the inhibition in [1] is 5.87%; in assay [2], -7.04%; in assay [3], 5.24%; in assay [4], 7.75%; in [5], 7.7%; in assay [6] it was -4.92%. The inhibition was 20.2% in [7]; -2.2% in [8]; 45.1% in [9]; 11% in assay [10]; 35.3% in assay [11]; 90.1% in assay [12]. Also, the figures for the inhibition in [13] and in [14] were 3.3% and 2.2%, respectively.

Take `Clc1cccc(Cl)c1NC1=NCCN1`: the inhibition was 20.8% in assay [2]; 13.1% in assay [4]; 0.71% in [5]; 29.5% in assay [15]; -8.53% in [6]; 31.6% in [8]. The inhibition in [10] was 20.9%; in assay [13], 77.2%; in assay [14] it was 69%.

Consider `Cc1ccccc1N1CCN(S(=O)(=O)C[C@]23CC[C@H](C[C@@H]2NC(=O)[C@@H](N)CCS(C)(=O)=O)C3(C)C)CC1`, for which the inhibition in assay [1] was -8.2%; in [2] it was 30.4%; in [4], 18.8%; in assay [15] it was -2.54%; in assay [7], -6.4%; in assay [8], 0.75%. Also, the inhibition was 7.11% in assay [9], 89.9% in [11], 25.6% in [13] and 19.4% in assay [14].

Turning to `CCc1nn2c(C)cc(C)nc2c1Cc1ccc(-c2nnc(C3CCNCC3)o2)cc1`, the inhibition was -8.3% in assay [1]; 4.13% in assay [2]; 16.6% in [4]; 14.8% in assay [15]; -6.61% in assay [6]; 6.13% in assay [7]. In addition, the inhibition is -6.08% in assay [8]; -8.38% in assay [10]; 52.4% in assay [11]; -9.55% in assay [12]; 5.87% in [13]; -9.75% in [14].

For `COc1ccc2[nH]cc(CCNC(C)=O)c2c1`, the inhibition in assay [1] was -7.94%; in assay [2], 29.5%; in [4], 12.5%; in [15], 17.3%; in assay [7], 6.12%; in assay [8], 12%. For the same compound, the inhibition in [9] is 13.1%; in assay [10], -9.78%; in [11], 29.1%; in [12], 32.8%; in assay [13], -7.65%; in [14], -4.46%.

Consider `COc1cc2nc(N3CCN(C(=O)c4ccco4)CC3)nc(N)c2cc1OC`, for which the inhibition is 8.21% in [1]; 29.4% in assay [2]; 27.2% in assay [4]; 3.19% in assay [5]; 2.17% in assay [6]; 7.69% in assay [7]. Moreover, the inhibition is 2.66% in assay [8]; 22.2% in [9]; 26.5% in assay [10]; 68% in assay [11]; 49.2% in [12]; 23.8% in assay [13]. The inhibition in assay [14] is 98.7%.

Regarding `CNC[C@H](O)c1ccc(O)c(O)c1`, the inhibition in assay [2] is 32.7%; in assay [4], 11.1%; in assay [15] it was 15.8%; in assay [7], -3.14%; in [8] it was 37%; in assay [9] it was 10.9%. Further, the inhibition in assay [12] is 15.9%; in assay [13], -8.3%; in assay [14], 6.21%.

For `COc1ccc2cc(S(=O)(=O)N[C@H](CC(=O)N[C@H](Cc3ccc(CN4[C@H](C)CCC[C@@H]4C)cc3)C(=O)N(C)C(C)C)c3ccc4c(c3)OCO4)ccc2c1`, the inhibition in [1] was 62.1%; in assay [2] it was 36.8%; in [3], 14.5%; in [4] it was 31.1%; in assay [16] it was 44.5%; in assay [5], 52.8%. Moreover, the inhibition was 46.7% in assay [6]; -0.19% in assay [8]; 11.7% in [9]; 25.7% in assay [10]; 102% in [11]; 2.14% in [12]. The inhibition in assay [13] is -0.02%; in assay [14] it was 3.26%.

In the case of `Brc1c(NC2=NCCN2)ccc2nccnc12`, the inhibition in assay [2] was -6.87%; in [4] it was 7.31%; in assay [15], 49.5%; in assay [7] it was 34.9%; in [8] it was 23.8%; in [10], 19.2%. In addition, the inhibition is 12.5% in assay [12], 69.9% in assay [13] and 34% in assay [14].

With `COC(=O)[C@H]1[C@H]2C[C@H]3c4[nH]c5ccccc5c4CCN3C[C@H]2CC[C@@H]1O`, the inhibition was 7.16% in [1]; 6.37% in assay [2]; 98.4% in assay [4]; 4.29% in assay [5]; -4.59% in assay [6]; 11.8% in [7]. Also, the inhibition was 6.36% in assay [8]; 32.4% in assay [9]; 43.4% in assay [10]; 63.2% in assay [11]; 49.4% in assay [12]; 85.2% in [13]. In addition, the inhibition in assay [14] is 66.2%.

On to `NC(=O)[C@@H]1CCCN1C(=O)[C@H](Cc1c[nH]cn1)NC(=O)[C@@H]1CCC(=O)N1`, for which the inhibition in [1] was 10.9%; in assay [2], 40.9%; in [3], 0.84%; in assay [4], 7.27%; in assay [16] it was -3.59%; in assay [5] it was 5.07%. Also, the inhibition was -2.83% in assay [6]; 0.19% in assay [7]; -1.74% in assay [8]; -1.35% in assay [9]; 35.9% in assay [10]; 34.1% in [11]. Also, the inhibition in assay [12] was -4.39%; in [13], -8.14%; in assay [14] it was -7.07%.

One may read the inhibition as the relative decrease from the control value, in per cent.
